Data published in ChEMBL document CHEMBL3632483, “Synthesis and pharmacological evaluation of piperidine (piperazine)-substituted benzoxazole derivatives as multi-target antipsychotics” (Bioorg Med Chem Lett, 2015).

Experiments:
D(2) dopamine receptor = D(2) dopamine receptor (Rattus norvegicus, UniProt P61169); assay: Displacement of [3H]spiperone from dopaminergic D2 receptor in rat striatum homogenates after 60 mins by liquid scintillation counting
[1] = biological target: T1, 5-hydroxytryptamine receptor 1A (Rattus norvegicus, UniProt P19327); assay: Displacement of [3H]8-OH-DPAT from 5-HT1A receptor in rat cerebral cortex homogenates after 60 mins by liquid scintillation counting; type: tissue-based
T1 sequence (P19327 whole entry): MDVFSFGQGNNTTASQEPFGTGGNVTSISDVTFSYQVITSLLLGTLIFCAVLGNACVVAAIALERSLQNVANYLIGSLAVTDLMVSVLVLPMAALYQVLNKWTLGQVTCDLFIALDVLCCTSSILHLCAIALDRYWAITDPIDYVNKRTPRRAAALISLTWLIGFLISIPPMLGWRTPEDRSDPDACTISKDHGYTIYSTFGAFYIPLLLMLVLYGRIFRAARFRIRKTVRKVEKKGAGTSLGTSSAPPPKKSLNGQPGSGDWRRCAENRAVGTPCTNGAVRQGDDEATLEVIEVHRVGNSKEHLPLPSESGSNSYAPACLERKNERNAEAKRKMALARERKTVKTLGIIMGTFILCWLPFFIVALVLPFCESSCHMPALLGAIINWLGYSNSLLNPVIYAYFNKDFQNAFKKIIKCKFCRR

[2] = biological target: T2, Adrenergic receptor alpha-1 (Rattus norvegicus, UniProt P15823+P23944+P43140); assay: Displacement of [3H]prazosin from adrenergic alpha1 receptor in rat cerebral cortex homogenates after 60 mins by liquid scintillation counting; type: tissue-based
T2 sequence (P15823 whole entry): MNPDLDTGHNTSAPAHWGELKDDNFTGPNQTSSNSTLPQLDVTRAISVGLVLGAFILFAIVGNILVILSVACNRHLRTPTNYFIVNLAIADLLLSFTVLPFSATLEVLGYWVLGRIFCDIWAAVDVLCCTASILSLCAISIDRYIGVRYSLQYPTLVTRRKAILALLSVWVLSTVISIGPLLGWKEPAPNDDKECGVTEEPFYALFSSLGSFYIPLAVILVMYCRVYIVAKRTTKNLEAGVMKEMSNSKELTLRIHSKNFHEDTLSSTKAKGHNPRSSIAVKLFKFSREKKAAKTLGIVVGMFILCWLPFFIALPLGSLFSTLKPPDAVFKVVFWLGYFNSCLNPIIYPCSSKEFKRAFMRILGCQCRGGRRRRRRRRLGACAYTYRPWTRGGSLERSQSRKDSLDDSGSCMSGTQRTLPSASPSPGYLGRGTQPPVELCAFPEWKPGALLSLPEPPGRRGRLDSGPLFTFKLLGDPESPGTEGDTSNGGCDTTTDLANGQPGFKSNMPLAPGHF
T2 sequence (P23944 whole entry): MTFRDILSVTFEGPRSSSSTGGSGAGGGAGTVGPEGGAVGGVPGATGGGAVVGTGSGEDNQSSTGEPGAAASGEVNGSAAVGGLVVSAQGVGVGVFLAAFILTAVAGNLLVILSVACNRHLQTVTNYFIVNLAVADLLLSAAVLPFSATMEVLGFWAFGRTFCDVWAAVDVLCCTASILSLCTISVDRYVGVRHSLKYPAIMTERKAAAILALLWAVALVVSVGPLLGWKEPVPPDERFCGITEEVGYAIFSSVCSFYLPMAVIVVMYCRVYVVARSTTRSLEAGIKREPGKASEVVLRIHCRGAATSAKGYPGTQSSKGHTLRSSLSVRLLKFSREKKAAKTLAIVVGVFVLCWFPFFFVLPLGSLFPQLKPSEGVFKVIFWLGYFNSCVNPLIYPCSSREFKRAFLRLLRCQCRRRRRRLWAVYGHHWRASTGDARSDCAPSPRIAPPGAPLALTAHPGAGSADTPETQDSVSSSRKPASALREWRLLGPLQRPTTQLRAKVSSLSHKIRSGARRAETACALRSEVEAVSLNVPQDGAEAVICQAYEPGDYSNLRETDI
T2 sequence (P43140 whole entry): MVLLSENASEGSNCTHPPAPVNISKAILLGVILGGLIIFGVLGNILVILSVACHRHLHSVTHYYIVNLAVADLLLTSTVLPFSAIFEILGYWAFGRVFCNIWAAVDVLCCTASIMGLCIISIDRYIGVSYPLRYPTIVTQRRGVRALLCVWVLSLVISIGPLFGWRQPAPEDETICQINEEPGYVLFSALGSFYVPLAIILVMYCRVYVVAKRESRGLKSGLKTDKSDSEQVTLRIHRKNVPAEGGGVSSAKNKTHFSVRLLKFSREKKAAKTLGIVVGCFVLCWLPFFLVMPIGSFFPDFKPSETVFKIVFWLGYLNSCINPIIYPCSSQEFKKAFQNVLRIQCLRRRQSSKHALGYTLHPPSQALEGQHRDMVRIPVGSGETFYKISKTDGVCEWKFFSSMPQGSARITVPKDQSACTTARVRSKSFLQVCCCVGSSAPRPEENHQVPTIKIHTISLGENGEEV

[3] = biological target: T3, 5-hydroxytryptamine receptor 2C (Rattus norvegicus, UniProt P08909); assay: Displacement of [3H]mesulergine from 5-HT2C receptor in rat cerebral cortex homogenates after 60 mins by liquid scintillation counting; type: tissue-based
T3 sequence (P08909 whole entry): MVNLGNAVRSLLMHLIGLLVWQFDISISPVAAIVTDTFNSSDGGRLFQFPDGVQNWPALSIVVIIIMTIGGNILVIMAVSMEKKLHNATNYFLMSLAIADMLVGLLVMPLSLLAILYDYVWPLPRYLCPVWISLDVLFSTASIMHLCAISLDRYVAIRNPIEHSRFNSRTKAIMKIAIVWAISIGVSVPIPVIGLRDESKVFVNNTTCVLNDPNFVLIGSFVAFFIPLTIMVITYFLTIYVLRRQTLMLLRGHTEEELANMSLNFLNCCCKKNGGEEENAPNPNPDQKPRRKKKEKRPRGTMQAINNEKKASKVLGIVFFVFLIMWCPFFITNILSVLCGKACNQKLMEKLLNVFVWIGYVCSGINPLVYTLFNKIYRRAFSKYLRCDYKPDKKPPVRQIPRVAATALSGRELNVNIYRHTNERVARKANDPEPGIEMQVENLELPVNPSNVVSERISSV

[4] = Acute toxicity in Sprague-Dawley rat; type: organism-based; settings: in vivo

D(2) dopamine receptor, sequence (P61169 whole entry): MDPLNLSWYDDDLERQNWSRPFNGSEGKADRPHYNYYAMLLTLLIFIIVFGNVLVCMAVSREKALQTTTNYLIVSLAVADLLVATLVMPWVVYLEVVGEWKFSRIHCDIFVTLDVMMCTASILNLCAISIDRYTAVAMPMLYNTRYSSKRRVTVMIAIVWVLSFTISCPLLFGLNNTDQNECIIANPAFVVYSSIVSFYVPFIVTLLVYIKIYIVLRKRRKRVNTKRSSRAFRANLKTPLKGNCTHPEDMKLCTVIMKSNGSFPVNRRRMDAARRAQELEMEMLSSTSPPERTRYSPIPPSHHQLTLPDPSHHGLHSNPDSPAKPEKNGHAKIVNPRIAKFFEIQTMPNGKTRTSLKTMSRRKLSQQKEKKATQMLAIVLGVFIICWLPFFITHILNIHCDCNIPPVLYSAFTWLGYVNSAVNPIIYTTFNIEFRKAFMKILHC

Row | SMILES | Ki (D(2) dopamine receptor) | Ki [1] | Ki [2] | Ki [3] | LD50 [4]
1 | Fc1ccc2c(C3CCN(CCCOc4ccc(-c5nc6ccccc6o5)cc4)CC3)noc2c1 | 0.0221 µM | 0.0835 µM | 0.095 µM | 0.186 µM | > 2000 mg/kg
2 | Fc1ccc2c(C3CCN(CCCOc4ccc(Cc5nc6ccccc6o5)cc4)CC3)noc2c1 | 0.0106 µM | 0.0213 µM | 3.276 µM | 1.99 µM | > 2000 mg/kg
